In patent US20100331297A1, “MODULATION OF PROTEIN TRAFFICKING” (FOLDRX PHARMACEUTICALS, INC., priority 2007, published 2010):
pEC50: −log10 of the molar value.

target: ΔF508 CFTR (Homo sapiens, UniProt P13569, DEL508-508); test: Corrector activity, YFP halide (iodide) quenching assay in FRT cells expressing ΔF508 CFTR; type: cell-based; parameters: expressed in transfected cells; host or cells: Fischer rat thyroid (FRT) cells; conditions: FRT cells ΔF508 CFTR/YFP, 24 hours with compound at 37° C., forskolin and genistein; read-out: Corrector EC50
Method: Fisher rat thyroid (FRT) cells stably expressing ΔF508 CFTR and a halide-sensitive variant of yellow fluorescent protein (YFP) were seeded into microtiter plates and allowed to grow for 24 hours at 37° C. and 5% CO2. See Pedemonte et al., J. Clin. Invest. […] Compounds in dimethylsulfoxide (DMSO) solution were pre-diluted into cell culture medium, the medium was removed from cells, and then fresh medium containing the compounds was applied. The cells were incubated for a further 24 hours at 37° C. and 5% CO2.
Activity of CFTR was assayed by removing the medium, washing the cell monolayer with phosphate-buffered saline solution (PBS), and then applying PBS containing forskolin and genistein. After 30 min incubation at 37° C., the plates were placed in a fluorescence plate reader equipped with a reagent injector.
Corrector activity was calculated as follows. Normalized endpoint fluorescence was calculated by dividing the endpoint fluorescence after iodide injection by the initial fluorescence reading and multiplication by 100. Corrector EC50 values were calculated from the activity vs. concentration data using a 4-parameter log fit. The bottom of the curve was constrained to zero activity (DMSO control) while the slope, EC50, and top of the curve were fitted to the data. The EC50 was determined as the concentration that corresponds to the inflection point of the fitted curve.

Chain of ΔF508 CFTR (P13569 with tags, fused parts or gaps DEL508-508): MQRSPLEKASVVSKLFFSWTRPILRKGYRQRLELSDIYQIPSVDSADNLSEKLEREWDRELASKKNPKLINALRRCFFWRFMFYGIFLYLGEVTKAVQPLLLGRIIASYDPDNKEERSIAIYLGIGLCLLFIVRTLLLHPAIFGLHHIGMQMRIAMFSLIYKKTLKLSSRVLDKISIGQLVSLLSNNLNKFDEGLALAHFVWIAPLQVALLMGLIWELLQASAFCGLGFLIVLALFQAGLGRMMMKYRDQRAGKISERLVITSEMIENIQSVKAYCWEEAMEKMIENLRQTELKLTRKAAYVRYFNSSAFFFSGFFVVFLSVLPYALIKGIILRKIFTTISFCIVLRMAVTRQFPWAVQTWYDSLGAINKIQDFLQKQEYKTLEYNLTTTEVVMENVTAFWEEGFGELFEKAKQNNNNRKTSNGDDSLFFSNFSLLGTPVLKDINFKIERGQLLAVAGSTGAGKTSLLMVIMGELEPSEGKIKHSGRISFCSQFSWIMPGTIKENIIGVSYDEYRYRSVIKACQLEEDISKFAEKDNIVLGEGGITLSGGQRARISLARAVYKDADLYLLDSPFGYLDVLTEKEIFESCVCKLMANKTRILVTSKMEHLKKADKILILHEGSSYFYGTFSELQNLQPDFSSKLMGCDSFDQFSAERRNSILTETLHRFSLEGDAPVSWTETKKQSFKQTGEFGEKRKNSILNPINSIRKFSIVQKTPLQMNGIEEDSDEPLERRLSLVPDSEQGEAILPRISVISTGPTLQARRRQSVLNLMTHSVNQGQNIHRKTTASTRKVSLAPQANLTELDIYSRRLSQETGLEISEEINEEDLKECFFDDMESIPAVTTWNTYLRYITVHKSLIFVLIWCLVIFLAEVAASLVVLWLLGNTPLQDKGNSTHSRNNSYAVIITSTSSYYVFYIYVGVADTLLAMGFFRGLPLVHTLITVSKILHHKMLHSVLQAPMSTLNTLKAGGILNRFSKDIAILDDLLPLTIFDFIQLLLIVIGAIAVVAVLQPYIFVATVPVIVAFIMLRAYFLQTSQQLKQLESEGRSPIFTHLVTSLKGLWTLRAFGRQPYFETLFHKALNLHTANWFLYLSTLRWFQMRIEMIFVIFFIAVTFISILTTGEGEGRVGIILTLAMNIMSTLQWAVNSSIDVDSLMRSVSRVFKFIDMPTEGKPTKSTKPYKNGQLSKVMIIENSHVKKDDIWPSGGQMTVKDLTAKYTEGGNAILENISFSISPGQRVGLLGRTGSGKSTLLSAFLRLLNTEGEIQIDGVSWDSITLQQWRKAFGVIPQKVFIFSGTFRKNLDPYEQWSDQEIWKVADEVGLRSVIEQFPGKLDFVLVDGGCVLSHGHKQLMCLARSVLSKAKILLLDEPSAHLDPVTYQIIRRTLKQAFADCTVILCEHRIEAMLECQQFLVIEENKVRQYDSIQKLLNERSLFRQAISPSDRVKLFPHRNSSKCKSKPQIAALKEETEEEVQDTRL

pEC50	SMILES
5.00 to 5.30	CCNC(=O)n1nc(-c2ccc(Cl)cc2)c2c(N)ncnc21 [Compound No. 213, 4-Amino-3-(4-chloro-phenyl)-pyrazolo[3,4-d]pyrimidine-1-carboxylic acid ethylamide]
< 4.82	Nc1ncnc2c1c(Oc1cccc(Cl)c1)nn2C1CCCC1 [Compound No. 221, 3-(3-Chloro-phenoxy)-1-cyclopentyl-1H-pyrazolo[3,4-d]pyrimidin-4-ylamine]
< 4.82	CCn1nc(Nc2ccccc2)c2c(N)ncnc21 [Compound No. 223, 1-Ethyl-N^3-phenyl-1H-pyrazolo[3,4-d]pyrimidine-3,4-diamine]
< 4.82	Cc1ccc(-c2nn(-c3ncccn3)c3ncnc(N)c23)cc1 [Compound No. 229, 1-Pyrimidin-2-yl-3-p-tolyl-1H-pyrazolo[3,4-d]pyrimidin-4-ylamine]
< 4.82	CC(C)(C)n1nc(-c2ccc(Cl)cc2)c2c(NC(=O)Nc3ccccc3)ncnc21 [Compound No. 230, 1-[1-tert-Butyl-3-(4-chloro-phenyl)-1H-pyrazolo[3,4-d]pyrimidin-4-yl]-3-phenyl-urea]
< 4.82	CN(C)/C=N/c1ncnc2c1c(-c1ccc(Cl)cc1)nn2C(C)(C)C [Compound No. 232, N′-[1-tert-Butyl-3-(4-chloro-phenyl)-1H-pyrazolo[3,4-d]pyrimidin-4-yl]-N,N-dimethyl-formamidine]
< 4.82	Cc1ccc(-c2nn(C(C)(C)C)c3ncnc(Nc4ncccn4)c23)cc1 [Compound No. 234, (1-tert-Butyl-3-p-tolyl-1H-pyrazolo[3,4-d]pyrimidin-4-yl)-pyrimidin-2-yl-amine]
< 4.82	CCn1nc(N(C)c2ccccc2)c2c(N)ncnc21 [Compound No. 248, 1-Ethyl-N^3-methyl-N^3-phenyl-1H-pyrazolo[3,4-d]pyrimidine-3,4-diamine]
< 4.82	Nc1ncnc2c1c(Nc1ccccc1)nn2C1CCC1 [Compound No. 253, 1-Cyclobutyl-N^3-phenyl-1H-pyrazolo[3,4-d]pyrimidine-3,4-diamine]
< 4.82	CC(=O)N(C)c1ncnc2c1c(-c1ccc(Cl)cc1)nn2C(C)(C)C [Compound No. 259, N-[1-tert-Butyl-3-(4-chloro-phenyl)-1H-pyrazolo[3,4-d]pyrimidin-4-yl]-N-methyl-acetamide]
5.30 to 5.70	CC(C)(C)n1nc(-c2nc3ccccc3o2)c2c(N)ncnc21 [Compound No. 355, 3-Benzooxazol-2-yl-1-tert-butyl-1H-pyrazolo[3,4-d]pyrimidin-4-ylamine]
< 4.82	CC(C)(C)n1ncc2c(NC(=O)c3ccccc3)ncnc21 [Compound No. 388, N-(1-tert-Butyl-1H-pyrazolo[3,4-d]pyrimidin-4-yl)-benzamide]
5.00 to 5.30	CC(C)(C)n1nc(-c2ccc(Cl)cc2)c2c(NC(=O)C(=O)c3ccccc3)ncnc21 [Compound No. 395, N-[1-tert-Butyl-3-(4-chloro-phenyl)-1H-pyrazolo[3,4-d]pyrimidin-4-yl]-2-oxo-2-phenyl-acetamide]
< 4.82	CNC(=S)Nc1ncnc2c1c(-c1ccc(Cl)cc1)nn2C(C)(C)C [Compound No. 397, 1-[1-tert-Butyl-3-(4-chloro-phenyl)-1H-pyrazolo[3,4-d]pyrimidin-4-yl]-3-methyl-thiourea]
< 4.82	CCC(C)Cn1nc(-c2ccc(Cl)cc2)c2c(N)ncnc21 (stereo not shown) [compound 101]
< 4.82	CC(=O)N(C(C)=O)c1ncnc2c1c(-c1ccc(F)cc1)nn2C(C)(C)C [compound 117, N-Acetyl-N-[1-tert-butyl-3-(4-fluoro-phenyl)-1H-pyrazolo[3,4-d]pyrimidin-4-yl]-acetamide]
< 4.82	CC(=O)c1ccc(-c2nn(C(C)(C)C)c3ncnc(N)c23)cc1 [compound 125]
5.00 to 5.30	CC(C)(C)n1nc(-c2ccc3ccccc3c2)c2c(N)ncnc21 [compound 129]
< 4.82	CC(C)(C)n1nc(-c2ccc(O)c3ccccc23)c2c(N)ncnc21 [compound 164]
< 4.82	COCCn1nc(-c2ccc(Cl)cc2)c2c(N)ncnc21 [compound 171]
< 4.82	CC(=O)n1nc(-c2ccc(Cl)cc2)c2c(N)ncnc21 [compound 181, 1-[4-Amino-3-(4-chloro-phenyl)-pyrazolo[3,4-d]pyrimidin-1-yl]-ethanone]

pEC50	SMILES
5.00 to 5.30	Nc1ncnc2c1c(-c1ccc(Cl)cc1)nn2C(=O)C1CC1 [compound 182]
< 4.82	COC(=O)n1nc(-c2ccc(Cl)cc2)c2c(N)ncnc21 [compound 186, 4-Amino-3-(4-chloro-phenyl)-pyrazolo[3,4-d]pyrimidine-1-carboxylic acid methyl ester]
5.30 to 5.70	CC(C)(C)C1N=C(c2ccc(Cl)cc2)c2c(NC(=O)C3CCC3)ncnc21 (stereo not shown) [compound 192]
< 4.82	CS(=O)(=O)n1nc(-c2ccc(Cl)cc2)c2c(N)ncnc21 [compound 203, 3-(4-Chloro-phenyl)-1-methanesulfonyl-1H-pyrazolo[3,4-d]pyrimidin-4-ylamine]
5.30 to 5.70	CCn1cc(-c2ccc(Cl)cc2)c2c(N(C(C)=O)C(C)=O)ncnc21 [compound 211, N-Acetyl-N-[5-(4-chloro-phenyl)-7-ethyl-7H-pyrrolo[2,3-d]pyrimidin-4-yl]-acetamide]
< 4.82	Nc1ncnc2c1c(-c1ccc(Cl)cc1)nn2C(=O)Nc1ccccc1 [compound 214]
< 4.82	Nc1ncnc2c1c(-c1ccc(Cl)cc1)nn2C(=O)NCc1ccccc1 [compound 215]
5.30 to 5.70	CCn1nc(Sc2cccc(F)c2)c2c(N)ncnc21 [compound 219]
< 4.82	CCn1nc([S+]([O-])c2ccccc2C)c2c(N)ncnc21 (stereo not shown) [compound 222]
< 4.82	CC(C)(C)n1nc(-c2ccc(Cl)cc2)c2c(NC(=O)NCc3ccccc3)ncnc21 [compound 231]
< 4.82	CC(C)(C)n1nc(-c2ccc(Cl)cc2)c2c(Nc3ncccn3)ncnc21 [compound 235]
< 4.82	CCNC(=O)Nc1ncnc2c1c(-c1ccc(Cl)cc1)nn2C(C)(C)C [compound 239]
< 4.82	Nc1ncnc2c1c(-c1ccc(Cl)cc1)nn2CCc1ccccc1 [compound 243]
< 4.82	CCn1nc(Sc2ccncc2)c2c(N)ncnc21 [compound 249]
< 4.82	CCn1nc(Sc2cccc(O)c2)c2c(N)ncnc21 [compound 250]
< 4.82	Nc1ncnc2c1c(-c1ccc(Cl)cc1)nn2-c1ncccn1 [compound 251]
< 4.82	CCn1nc([S+]([O-])c2ccc(F)cc2)c2c(N)ncnc21 (stereo not shown) [compound 254]
< 4.82	CCn1nc(Sc2ccc(C)cc2)c2c(N)ncnc21 [compound 255]
< 4.82	CCn1nc(Sc2ccc(F)cc2F)c2c(N)ncnc21 [compound 258]
< 4.82	CCn1nc(Oc2cccc(Cl)c2)c2c(N)ncnc21 [compound 260]
> 5.70	CC(C)C(=O)Nc1ncnc2c1c(-c1ccc(Cl)cc1)cn2C(C)(C)C [compound 337]

pEC50	SMILES
5.00 to 5.30	CC(C)(C)n1nc(Oc2cccc(Cl)c2)c2c(NC(=O)C3CCCC3)ncnc21 [compound 338]
5.00 to 5.30	CCC(=O)Nc1ncnc2c1c(Oc1cccc(Cl)c1)nn2C(C)(C)C [compound 339]
< 4.82	CCn1nc([S+]([O-])c2cccc(C(F)(F)F)c2)c2c(N)ncnc21 (stereo not shown) [compound 340]
< 4.82	CCNC(=O)N1CC(n2nc(Sc3ccccc3)c3c(N)ncnc32)C1 [compound 348]
< 4.82	CC(C)(C)n1cc(-c2cccc(Cl)c2)c2c(N)ncnc21 [compound 354]
< 4.82	CC(C)(C)OC(=O)N1CC(n2nc(Oc3cccc(Cl)c3)c3c(N)ncnc32)C1 [compound 357]
< 4.82	Nc1ncnc2c1c(Oc1cccc(Cl)c1)nn2C1CCOC1 (stereo not shown) [compound 358]
< 4.82	Nc1ncnc2c1c(Oc1ccccc1)nn2C1CCOC1 (stereo not shown) [compound 359]
< 4.82	CC(C)N1CC(n2nc(Sc3cccc(Cl)c3)c3c(N)ncnc32)C1 [compound 360]
< 4.82	CC1CCC(n2nc(-c3ccc(Cl)cc3)c3c(N)ncnc32)CC1 (stereo not shown) [compound 361]
< 4.82	CC(C)(C)OC(=O)N1CCC(n2nc(Oc3ccccc3)c3c(N)ncnc32)CC1 [compound 362]
< 4.82	CN1CCC(C(=O)Nc2ncnc3c2c(-c2ccc(Cl)cc2)nn3C(C)(C)C)C1 (stereo not shown) [compound 363]
> 5.70	CCn1c(C)c(-c2ccc(Cl)cc2)c2c(NC(=O)C(C)C)ncnc21 [compound 364]
5.30 to 5.70	CCn1c(C)c(-c2ccc(Cl)cc2)c2c(NC(=O)C3CCCC3)ncnc21 [compound 365]
< 4.82	CC(C)C(=O)Nc1ncnc2c1c(-c1ccc(Cl)cc1)cn2C(C)(C)C [compound 366]
5.00 to 5.30	CC(C)(C)n1cc(-c2cccc(Cl)c2)c2c(NC(=O)C3CCCC3)ncnc21 [compound 367]
5.00 to 5.30	CCC(=O)Nc1ncnc2c1c(-c1cccc(Cl)c1)cn2C(C)(C)C [compound 368]
5.30 to 5.70	CC(C)C(=O)Nc1ncnc2c1c(Oc1cccc(Cl)c1)nn2C(C)(C)C [compound 369]
< 4.82	CC(C)(C)n1nc(Oc2nccc3ccccc23)c2c(N)ncnc21 [compound 370, 1-tert-Butyl-3-(isoquinolin-1-yloxy)-1H-pyrazolo[3,4-d]pyrimidin-4-ylamine]
